The values that follow come from article PMC10824666 (Nature Cancer, 2023).

Holding throughout (experiment): biochemical
Holding throughout (parameters): Eurofins DiscoverX kinase panel, competitive binding assay at 1 uM, percent of DMSO control
Holding throughout (conditions): competitive binding, percent of DMSO control

Experiment [1] concerns the target Stk33 (Homo sapiens, UniProt Q9BYT3). The method in brief: (§1)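 Competitive binding assay across a 96-kinase panel with KIF18A compounds at 1 µM; values given as percentage of control (POC), single experiment.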
Experiment [2] has as its target T1, CAMK4 (Homo sapiens, UniProt Q16566).
T1 sequence (Q16566 1-473): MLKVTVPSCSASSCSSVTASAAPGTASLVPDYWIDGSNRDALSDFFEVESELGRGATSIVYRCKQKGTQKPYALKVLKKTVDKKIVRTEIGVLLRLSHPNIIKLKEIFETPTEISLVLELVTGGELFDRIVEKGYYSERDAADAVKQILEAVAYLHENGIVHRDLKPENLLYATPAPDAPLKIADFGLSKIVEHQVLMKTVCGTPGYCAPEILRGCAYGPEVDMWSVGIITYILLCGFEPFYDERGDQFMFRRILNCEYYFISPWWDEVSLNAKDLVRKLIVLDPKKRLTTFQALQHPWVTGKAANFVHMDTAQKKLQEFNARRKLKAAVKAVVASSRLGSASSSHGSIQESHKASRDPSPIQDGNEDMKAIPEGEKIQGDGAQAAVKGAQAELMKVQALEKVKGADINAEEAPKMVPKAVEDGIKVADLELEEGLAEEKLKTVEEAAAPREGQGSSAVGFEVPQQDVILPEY
The method in brief:
as §1

The target of experiment [3] is T2, Mps1 (Homo sapiens, UniProt P33981).
T2 construct: gene TTK
T2 sequence (P33981 1-857): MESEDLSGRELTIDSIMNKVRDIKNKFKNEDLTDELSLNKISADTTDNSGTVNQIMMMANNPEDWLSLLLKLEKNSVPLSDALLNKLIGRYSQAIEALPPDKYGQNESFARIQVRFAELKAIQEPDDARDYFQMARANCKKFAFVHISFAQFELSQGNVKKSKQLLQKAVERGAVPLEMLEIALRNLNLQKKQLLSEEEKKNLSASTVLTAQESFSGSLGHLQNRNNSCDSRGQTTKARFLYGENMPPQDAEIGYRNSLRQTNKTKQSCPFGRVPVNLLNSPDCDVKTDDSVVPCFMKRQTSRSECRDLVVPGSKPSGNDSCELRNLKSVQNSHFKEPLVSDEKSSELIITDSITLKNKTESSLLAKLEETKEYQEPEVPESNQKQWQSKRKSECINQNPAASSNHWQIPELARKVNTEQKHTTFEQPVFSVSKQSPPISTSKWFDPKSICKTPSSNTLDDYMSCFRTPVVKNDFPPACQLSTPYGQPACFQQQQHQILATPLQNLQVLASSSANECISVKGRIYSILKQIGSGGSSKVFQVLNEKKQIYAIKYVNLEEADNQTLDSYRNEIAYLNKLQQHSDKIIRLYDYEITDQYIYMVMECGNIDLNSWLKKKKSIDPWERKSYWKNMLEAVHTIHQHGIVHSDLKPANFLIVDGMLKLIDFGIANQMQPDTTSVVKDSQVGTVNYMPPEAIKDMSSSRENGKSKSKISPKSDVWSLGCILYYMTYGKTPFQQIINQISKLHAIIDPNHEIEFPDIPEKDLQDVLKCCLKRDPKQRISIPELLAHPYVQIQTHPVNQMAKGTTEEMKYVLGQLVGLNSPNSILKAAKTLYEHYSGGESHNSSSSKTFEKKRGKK
The method in brief:
as §1

In experiment [4] the target is MAP3K9 (Homo sapiens, UniProt P80192). The method in brief: as §1
Setting [5] is: read-out: Kinome Profiling performed by Eurofins DiscoverX / AM-0277, 1.0 µM / POC.
Setting [6] is: read-out: Kinome Profiling performed by Eurofins DiscoverX / AM-1882, 1.0 µM / POC.
[7] abbreviates: read-out: Kinome Profiling performed by Eurofins DiscoverX / AM-5308, 1.0 µM / POC.

Like-named read-outs stand apart in the source and are kept apart here.

Chain of MAP3K9 (P80192 whole entry): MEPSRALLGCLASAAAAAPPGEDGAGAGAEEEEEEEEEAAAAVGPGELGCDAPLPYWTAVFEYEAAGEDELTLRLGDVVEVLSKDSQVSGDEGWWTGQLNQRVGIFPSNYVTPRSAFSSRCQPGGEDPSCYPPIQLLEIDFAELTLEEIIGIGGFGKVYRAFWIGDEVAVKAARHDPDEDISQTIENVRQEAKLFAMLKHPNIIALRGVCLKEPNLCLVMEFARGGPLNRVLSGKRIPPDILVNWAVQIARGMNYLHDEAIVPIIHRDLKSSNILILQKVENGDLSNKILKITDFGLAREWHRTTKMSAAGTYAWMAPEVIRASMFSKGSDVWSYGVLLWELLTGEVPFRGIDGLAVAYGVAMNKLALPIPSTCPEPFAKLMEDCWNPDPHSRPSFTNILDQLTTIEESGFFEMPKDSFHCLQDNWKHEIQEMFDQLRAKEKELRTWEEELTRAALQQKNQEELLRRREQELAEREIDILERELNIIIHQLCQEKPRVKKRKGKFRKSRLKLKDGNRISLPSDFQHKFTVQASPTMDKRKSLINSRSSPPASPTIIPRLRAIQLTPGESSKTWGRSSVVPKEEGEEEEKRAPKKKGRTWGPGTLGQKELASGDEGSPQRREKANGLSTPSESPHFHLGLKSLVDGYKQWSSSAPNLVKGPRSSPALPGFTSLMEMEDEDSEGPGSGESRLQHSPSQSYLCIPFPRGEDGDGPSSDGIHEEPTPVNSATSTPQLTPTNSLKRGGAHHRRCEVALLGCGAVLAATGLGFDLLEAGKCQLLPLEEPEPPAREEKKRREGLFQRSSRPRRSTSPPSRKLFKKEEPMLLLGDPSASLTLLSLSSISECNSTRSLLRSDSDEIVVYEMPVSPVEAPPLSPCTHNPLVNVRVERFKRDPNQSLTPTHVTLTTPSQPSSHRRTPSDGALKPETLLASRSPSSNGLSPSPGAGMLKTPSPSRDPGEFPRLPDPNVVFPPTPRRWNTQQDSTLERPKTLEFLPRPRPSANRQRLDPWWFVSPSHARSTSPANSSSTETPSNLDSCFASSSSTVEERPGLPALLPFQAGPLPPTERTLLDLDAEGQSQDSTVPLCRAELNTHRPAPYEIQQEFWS
Chain of Stk33 (Q9BYT3 whole entry): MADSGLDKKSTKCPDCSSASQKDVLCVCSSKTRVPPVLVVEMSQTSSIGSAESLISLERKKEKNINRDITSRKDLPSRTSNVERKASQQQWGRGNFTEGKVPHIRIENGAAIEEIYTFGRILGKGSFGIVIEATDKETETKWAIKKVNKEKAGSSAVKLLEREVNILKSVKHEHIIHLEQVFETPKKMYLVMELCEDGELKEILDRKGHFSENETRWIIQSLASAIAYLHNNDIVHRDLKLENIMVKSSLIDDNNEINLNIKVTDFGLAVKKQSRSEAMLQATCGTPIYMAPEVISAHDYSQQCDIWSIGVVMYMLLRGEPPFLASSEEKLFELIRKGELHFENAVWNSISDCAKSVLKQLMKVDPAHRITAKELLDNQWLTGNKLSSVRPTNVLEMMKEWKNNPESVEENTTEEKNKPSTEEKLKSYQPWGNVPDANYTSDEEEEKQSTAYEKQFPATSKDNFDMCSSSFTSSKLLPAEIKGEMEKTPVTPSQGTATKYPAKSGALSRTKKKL

Turning to `CC(C)(CO)Nc1ccc(C(=O)Nc2cccc(S(=O)(=O)C3CCCC3)c2)c(N2CCC3(CC2)CC3)n1` [AM-0277], the remaining activity at 1 µM was 86% in experiment [1] (setting [5]), 81% in experiment [2] (setting [5]), 76% in experiment [3] (setting [5]) and 100% in experiment [4] (setting [5]).

In the case of `CC(C)(C)NS(=O)(=O)c1cccc(NC(=O)c2ccc(S(=O)(=O)NC(C)(C)C)cc2N2CCC3(CC2)CC3)c1` [AM-1882], the remaining activity at 1 µM stood at 98% in experiment [1] (setting [6]), 99% in experiment [2] (setting [6]), 97% in experiment [3] (setting [6]) and 100% in experiment [4] (setting [6]).

Regarding `C[C@@H]1CN(c2cccc(NC(=O)c3ccc(NS(=O)(=O)CCO)cc3N3CCC4(CC3)CC4)n2)CCO1` [AM-5308], the remaining activity at 1 µM in experiment [1] (setting [7]) amounted to 89%; in experiment [2] (setting [7]) it was 100%; in experiment [3] (setting [7]), 47%; in experiment [4] (setting [7]) it was 95%.
